In PubChem BioAssay (NCI):
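Results reflect a 48-hour exposure of cells in 96-well plates to compound at five concentrations. TGI is the concentration that stops growth completely.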

These compounds were tested on LOX IMVI melanoma (assay: DTP human tumour cell line panel, 48 h).

Compound | TGI [µM]
COc1cc(C)c2c(c1C=O)Oc1c(c(C)c(O)c3c1C(O)OC3=O)OC2=O (stereo not given) | > 100

These compounds were tested on A549 NSCLC (assay: DTP human tumour cell line panel, 48 h).

Compound | TGI [µM]
CN(/N=C(\C(=O)O)c1ccccc1)C1=NCCCCN1 | > 100
CO[C@@H]1C[C@H]2[C@@H]3CC[C@H]([C@H](C)CO)[C@@]3(C)CC[C@@H]2[C@@]2(C)CC[C@H]3C[C@]312 | > 100
Oc1ccc(-c2nc3ccc4ccccc4c3c3c2CCCC3)c(O)c1 | > 100
COc1cc(C)c2c(c1C=O)Oc1c(c(C)c(O)c3c1C(O)OC3=O)OC2=O (stereo not given) | > 100

These compounds were tested on NCI-H23 lung (assay: DTP human tumour cell line panel, 48 h).

Compound | TGI [µM]
CN(/N=C(\C(=O)O)c1ccccc1)C1=NCCCCN1 | > 100
CO[C@@H]1C[C@H]2[C@@H]3CC[C@H]([C@H](C)CO)[C@@]3(C)CC[C@@H]2[C@@]2(C)CC[C@H]3C[C@]312 | > 100
Oc1ccc(-c2nc3ccc4ccccc4c3c3c2CCCC3)c(O)c1 | > 100
COc1ccc2c(c1)C(N)=C(c1ccccc1OC)C2=O | > 100
COc1cc(C)c2c(c1C=O)Oc1c(c(C)c(O)c3c1C(O)OC3=O)OC2=O (stereo not given) | 95

Each compound was assayed on SNB-75 CNS (assay: DTP human tumour cell line panel, 48 h).

Compound | TGI [µM]
CN(/N=C(\C(=O)O)c1ccccc1)C1=NCCCCN1 | > 100
CO[C@@H]1C[C@H]2[C@@H]3CC[C@H]([C@H](C)CO)[C@@]3(C)CC[C@@H]2[C@@]2(C)CC[C@H]3C[C@]312 | > 100
Oc1ccc(-c2nc3ccc4ccccc4c3c3c2CCCC3)c(O)c1 | > 100
COc1ccc2c(c1)C(N)=C(c1ccccc1OC)C2=O | > 100
COc1cc(C)c2c(c1C=O)Oc1c(c(C)c(O)c3c1C(O)OC3=O)OC2=O (stereo not given) | > 100

What follows are compounds tested on UO-31 renal (assay: DTP human tumour cell line panel, 48 h).

Compound | TGI [µM]
CN(/N=C(\C(=O)O)c1ccccc1)C1=NCCCCN1 | > 100
CO[C@@H]1C[C@H]2[C@@H]3CC[C@H]([C@H](C)CO)[C@@]3(C)CC[C@@H]2[C@@]2(C)CC[C@H]3C[C@]312 | > 100
Oc1ccc(-c2nc3ccc4ccccc4c3c3c2CCCC3)c(O)c1 | > 100
COc1ccc2c(c1)C(N)=C(c1ccccc1OC)C2=O | > 100
COc1cc(C)c2c(c1C=O)Oc1c(c(C)c(O)c3c1C(O)OC3=O)OC2=O (stereo not given) | > 100

The compounds below were run on T-47D breast (assay: DTP human tumour cell line panel, 48 h).

Compound | TGI [µM]
CN(/N=C(\C(=O)O)c1ccccc1)C1=NCCCCN1 | > 100
CO[C@@H]1C[C@H]2[C@@H]3CC[C@H]([C@H](C)CO)[C@@]3(C)CC[C@@H]2[C@@]2(C)CC[C@H]3C[C@]312 | > 100
Oc1ccc(-c2nc3ccc4ccccc4c3c3c2CCCC3)c(O)c1 | > 100
COc1ccc2c(c1)C(N)=C(c1ccccc1OC)C2=O | > 100
COc1cc(C)c2c(c1C=O)Oc1c(c(C)c(O)c3c1C(O)OC3=O)OC2=O (stereo not given) | 65.1

These compounds were tested on RPMI-8226 leukemia (assay: DTP human tumour cell line panel, 48 h).

Compound | TGI [µM]
CN(/N=C(\C(=O)O)c1ccccc1)C1=NCCCCN1 | > 100
CO[C@@H]1C[C@H]2[C@@H]3CC[C@H]([C@H](C)CO)[C@@]3(C)CC[C@@H]2[C@@]2(C)CC[C@H]3C[C@]312 | 58
Oc1ccc(-c2nc3ccc4ccccc4c3c3c2CCCC3)c(O)c1 | > 100
COc1ccc2c(c1)C(N)=C(c1ccccc1OC)C2=O | > 100
COc1cc(C)c2c(c1C=O)Oc1c(c(C)c(O)c3c1C(O)OC3=O)OC2=O (stereo not given) | 49.6

These compounds were tested on SR leukemia (assay: DTP human tumour cell line panel, 48 h).

Compound | TGI [µM]
CN(/N=C(\C(=O)O)c1ccccc1)C1=NCCCCN1 | > 100
CO[C@@H]1C[C@H]2[C@@H]3CC[C@H]([C@H](C)CO)[C@@]3(C)CC[C@@H]2[C@@]2(C)CC[C@H]3C[C@]312 | > 100
Oc1ccc(-c2nc3ccc4ccccc4c3c3c2CCCC3)c(O)c1 | > 100
COc1ccc2c(c1)C(N)=C(c1ccccc1OC)C2=O | > 100
COc1cc(C)c2c(c1C=O)Oc1c(c(C)c(O)c3c1C(O)OC3=O)OC2=O (stereo not given) | 60.9

What follows are compounds tested on HL-60(TB) leukemia (assay: DTP human tumour cell line panel, 48 h).

Compound | TGI [µM]
CN(/N=C(\C(=O)O)c1ccccc1)C1=NCCCCN1 | > 100
CO[C@@H]1C[C@H]2[C@@H]3CC[C@H]([C@H](C)CO)[C@@]3(C)CC[C@@H]2[C@@]2(C)CC[C@H]3C[C@]312 | 47.2
Oc1ccc(-c2nc3ccc4ccccc4c3c3c2CCCC3)c(O)c1 | > 100
COc1ccc2c(c1)C(N)=C(c1ccccc1OC)C2=O | > 100
COc1cc(C)c2c(c1C=O)Oc1c(c(C)c(O)c3c1C(O)OC3=O)OC2=O (stereo not given) | 48.4

Each compound was assayed on NCI-H522 lung (assay: DTP human tumour cell line panel, 48 h).

Compound | TGI [µM]
CN(/N=C(\C(=O)O)c1ccccc1)C1=NCCCCN1 | > 100
CO[C@@H]1C[C@H]2[C@@H]3CC[C@H]([C@H](C)CO)[C@@]3(C)CC[C@@H]2[C@@]2(C)CC[C@H]3C[C@]312 | > 100
Oc1ccc(-c2nc3ccc4ccccc4c3c3c2CCCC3)c(O)c1 | 41.1
COc1cc(C)c2c(c1C=O)Oc1c(c(C)c(O)c3c1C(O)OC3=O)OC2=O (stereo not given) | 83.8

The compounds below were run on CCRF-CEM leukemia (assay: DTP human tumour cell line panel, 48 h).

Compound | TGI [µM]
CN(/N=C(\C(=O)O)c1ccccc1)C1=NCCCCN1 | > 100
COc1ccc2c(c1)C(N)=C(c1ccccc1OC)C2=O | > 100

Each compound was assayed on SN12C renal (assay: DTP human tumour cell line panel, 48 h).

Compound | TGI [µM]
CN(/N=C(\C(=O)O)c1ccccc1)C1=NCCCCN1 | > 100
CO[C@@H]1C[C@H]2[C@@H]3CC[C@H]([C@H](C)CO)[C@@]3(C)CC[C@@H]2[C@@]2(C)CC[C@H]3C[C@]312 | > 100
Oc1ccc(-c2nc3ccc4ccccc4c3c3c2CCCC3)c(O)c1 | 32.8
COc1ccc2c(c1)C(N)=C(c1ccccc1OC)C2=O | > 100
COc1cc(C)c2c(c1C=O)Oc1c(c(C)c(O)c3c1C(O)OC3=O)OC2=O (stereo not given) | > 100

These compounds were tested on HCT-15 colon (assay: DTP human tumour cell line panel, 48 h).

Compound | TGI [µM]
CN(/N=C(\C(=O)O)c1ccccc1)C1=NCCCCN1 | > 100
CO[C@@H]1C[C@H]2[C@@H]3CC[C@H]([C@H](C)CO)[C@@]3(C)CC[C@@H]2[C@@]2(C)CC[C@H]3C[C@]312 | > 100
Oc1ccc(-c2nc3ccc4ccccc4c3c3c2CCCC3)c(O)c1 | > 100
COc1ccc2c(c1)C(N)=C(c1ccccc1OC)C2=O | > 100
COc1cc(C)c2c(c1C=O)Oc1c(c(C)c(O)c3c1C(O)OC3=O)OC2=O (stereo not given) | 46.4

The compounds below were run on MOLT-4 leukemia (assay: DTP human tumour cell line panel, 48 h).

Compound | TGI [µM]
CN(/N=C(\C(=O)O)c1ccccc1)C1=NCCCCN1 | > 100
CO[C@@H]1C[C@H]2[C@@H]3CC[C@H]([C@H](C)CO)[C@@]3(C)CC[C@@H]2[C@@]2(C)CC[C@H]3C[C@]312 | > 100
Oc1ccc(-c2nc3ccc4ccccc4c3c3c2CCCC3)c(O)c1 | > 100
COc1ccc2c(c1)C(N)=C(c1ccccc1OC)C2=O | > 100
COc1cc(C)c2c(c1C=O)Oc1c(c(C)c(O)c3c1C(O)OC3=O)OC2=O (stereo not given) | 49.5

Each compound was assayed on A498 renal (assay: DTP human tumour cell line panel, 48 h).

Compound | TGI [µM]
CN(/N=C(\C(=O)O)c1ccccc1)C1=NCCCCN1 | > 100
CO[C@@H]1C[C@H]2[C@@H]3CC[C@H]([C@H](C)CO)[C@@]3(C)CC[C@@H]2[C@@]2(C)CC[C@H]3C[C@]312 | > 100
Oc1ccc(-c2nc3ccc4ccccc4c3c3c2CCCC3)c(O)c1 | > 100
COc1ccc2c(c1)C(N)=C(c1ccccc1OC)C2=O | > 100
COc1cc(C)c2c(c1C=O)Oc1c(c(C)c(O)c3c1C(O)OC3=O)OC2=O (stereo not given) | > 100

What follows are compounds tested on SK-OV-3 ovarian (assay: DTP human tumour cell line panel, 48 h).

Compound | TGI [µM]
CN(/N=C(\C(=O)O)c1ccccc1)C1=NCCCCN1 | > 100
Oc1ccc(-c2nc3ccc4ccccc4c3c3c2CCCC3)c(O)c1 | > 100
COc1ccc2c(c1)C(N)=C(c1ccccc1OC)C2=O | > 100
COc1cc(C)c2c(c1C=O)Oc1c(c(C)c(O)c3c1C(O)OC3=O)OC2=O (stereo not given) | > 100
